Numbering of substitutions follows the chain as printed.
What was measured:
SLC7A13-SLC3A1 complex [1] = biological target: T1, SLC7A13-SLC3A1 complex (Homo sapiens, UniProt Q8TCU3, C223A); assay: [2H]-cystine uptake, isotope tracking; type: cell-based; settings: HEK293 cells transfected with SLC7A13 and SLC3A1; labelled compound
T1 construct: heterodimeric light/heavy chain transporter, dimer of heterodimers; ectopically expressed in HEK293T / HEK293 cells (Expi293 for cryo-EM); with Amino acid transporter heavy chain SLC3A1
T1 sequence (Q8TCU3 1-470 C223A): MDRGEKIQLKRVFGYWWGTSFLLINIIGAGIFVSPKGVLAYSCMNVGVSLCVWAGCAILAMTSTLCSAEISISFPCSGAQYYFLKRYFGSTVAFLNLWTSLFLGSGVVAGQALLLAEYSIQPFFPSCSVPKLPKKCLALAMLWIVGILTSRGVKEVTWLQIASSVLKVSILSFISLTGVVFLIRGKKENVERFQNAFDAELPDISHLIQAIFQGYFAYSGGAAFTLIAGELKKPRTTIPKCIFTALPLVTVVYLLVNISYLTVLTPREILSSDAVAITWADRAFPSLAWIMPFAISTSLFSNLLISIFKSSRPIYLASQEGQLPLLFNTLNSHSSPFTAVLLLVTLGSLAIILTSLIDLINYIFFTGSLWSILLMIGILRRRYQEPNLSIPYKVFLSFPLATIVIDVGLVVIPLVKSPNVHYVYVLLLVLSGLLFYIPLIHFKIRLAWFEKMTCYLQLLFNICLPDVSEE
T1 sequence (Q07837 1-685 partner): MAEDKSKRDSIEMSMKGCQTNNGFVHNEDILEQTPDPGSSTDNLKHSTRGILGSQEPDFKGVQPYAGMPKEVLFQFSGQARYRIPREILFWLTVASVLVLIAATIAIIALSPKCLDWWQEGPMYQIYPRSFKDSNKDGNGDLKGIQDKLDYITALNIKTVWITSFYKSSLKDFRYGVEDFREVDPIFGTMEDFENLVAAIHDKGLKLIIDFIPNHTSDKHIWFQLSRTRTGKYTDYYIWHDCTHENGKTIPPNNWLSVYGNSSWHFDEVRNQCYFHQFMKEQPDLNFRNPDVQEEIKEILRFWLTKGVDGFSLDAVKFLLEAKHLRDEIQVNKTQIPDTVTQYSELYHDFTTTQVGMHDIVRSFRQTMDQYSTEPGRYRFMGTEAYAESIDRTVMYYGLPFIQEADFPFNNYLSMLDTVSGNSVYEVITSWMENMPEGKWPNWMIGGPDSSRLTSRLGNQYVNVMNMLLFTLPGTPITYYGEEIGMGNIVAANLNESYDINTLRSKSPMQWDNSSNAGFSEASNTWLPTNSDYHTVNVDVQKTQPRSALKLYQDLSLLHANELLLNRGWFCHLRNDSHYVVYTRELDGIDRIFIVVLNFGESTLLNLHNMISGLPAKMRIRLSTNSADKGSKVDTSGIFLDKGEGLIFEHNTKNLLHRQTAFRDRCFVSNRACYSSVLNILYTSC

SLC7A11-SLC3A2 complex = biological target: T2, SLC7A11-SLC3A2 complex (Homo sapiens, UniProt Q9UPY5); assay: microscale thermophoresis; settings: read-out: binding affinity
T2 construct: system xc-, heterodimeric light/heavy chain transporter; ectopically expressed in HEK293T cells; with Amino acid transporter heavy chain SLC3A2
T2 sequence (Q9UPY5 1-501): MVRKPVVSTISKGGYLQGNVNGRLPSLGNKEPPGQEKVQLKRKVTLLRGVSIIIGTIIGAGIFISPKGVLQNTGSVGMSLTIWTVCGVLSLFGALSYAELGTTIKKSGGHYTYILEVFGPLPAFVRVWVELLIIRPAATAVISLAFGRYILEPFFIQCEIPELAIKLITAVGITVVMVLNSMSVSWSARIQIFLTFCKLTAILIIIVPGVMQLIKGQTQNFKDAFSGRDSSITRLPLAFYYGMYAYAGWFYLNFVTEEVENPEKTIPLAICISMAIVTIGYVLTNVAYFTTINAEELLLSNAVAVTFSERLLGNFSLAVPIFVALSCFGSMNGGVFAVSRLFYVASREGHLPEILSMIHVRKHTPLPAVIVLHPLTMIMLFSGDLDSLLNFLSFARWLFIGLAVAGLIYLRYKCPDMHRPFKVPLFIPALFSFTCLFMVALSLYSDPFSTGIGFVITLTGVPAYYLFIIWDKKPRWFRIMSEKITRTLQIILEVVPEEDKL
T2 sequence (P08195 2-529 partner): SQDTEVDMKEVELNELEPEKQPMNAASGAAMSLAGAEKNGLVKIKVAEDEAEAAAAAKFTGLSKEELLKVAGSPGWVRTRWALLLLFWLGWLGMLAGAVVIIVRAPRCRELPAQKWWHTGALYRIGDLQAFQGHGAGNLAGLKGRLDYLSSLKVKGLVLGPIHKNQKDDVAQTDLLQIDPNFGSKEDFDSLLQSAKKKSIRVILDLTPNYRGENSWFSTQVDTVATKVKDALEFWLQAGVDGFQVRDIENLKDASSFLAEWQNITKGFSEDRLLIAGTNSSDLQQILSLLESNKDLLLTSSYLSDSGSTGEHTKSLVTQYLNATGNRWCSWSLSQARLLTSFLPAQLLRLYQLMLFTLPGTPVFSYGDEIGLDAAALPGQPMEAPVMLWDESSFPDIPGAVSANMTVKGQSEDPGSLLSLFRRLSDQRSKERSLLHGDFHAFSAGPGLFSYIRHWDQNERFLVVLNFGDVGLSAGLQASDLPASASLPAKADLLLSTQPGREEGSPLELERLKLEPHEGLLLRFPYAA

SLC7A13-SLC3A1 complex [2] = biological target: T3, SLC7A13-SLC3A1 complex (Homo sapiens, UniProt Q8TCU3, K309A); assay: [2H]-cystine uptake, isotope tracking; type: cell-based; settings: HEK293 cells transfected with SLC7A13 and SLC3A1; labelled compound
T3 construct: heterodimeric light/heavy chain transporter, dimer of heterodimers; ectopically expressed in HEK293T / HEK293 cells (Expi293 for cryo-EM); with Amino acid transporter heavy chain SLC3A1
T3 sequence (Q8TCU3 1-470 K309A): T1 sequence (Q8TCU3 1-470 C223A) with A223C, K309A
T3 sequence (Q07837 1-685 partner): T1 sequence (Q07837 1-685 partner)

- Kd (SLC7A11-SLC3A2 complex): 15.6 ± 7.04 µM
SMILES: N[C@@H](CSSC[C@H](N)C(=O)O)C(=O)O [cystine]
- cystine uptake (SLC7A13-SLC3A1 complex [1]): mutation in any of the seven SLC7A13-specific residues to alanine significantly reduced SLC7A13’s transporter activities
- cystine uptake (SLC7A13-SLC3A1 complex [2]): mutation in any of the seven SLC7A13-specific residues to alanine significantly reduced SLC7A13’s transporter activities
